From ChEMBL document CHEMBL5390265, “Design, Synthesis, and Pharmacological Evaluation of Multisubstituted Pyrido[4,3-d]pyrimidine Analogues Bearing Deuterated Methylene Linkers as Potent KRASG12D Inhibitors” (J Med Chem, 2023)
Calls of active or inactive are those of the source. The rule behind the calls is not given here.

Assays:
[1] = AUC in Sprague-Dawley rat at 1 mg/kg,iv measured upto 24 hrs by LC-MS/MS analysis; type: ADME, organism-based; design: dose 1 mg/kg, time < 24 hrs, route iv; conditions: in vivo
[2] = Half life in Sprague-Dawley rat at 1 mg/kg,iv measured upto 24 hrs by LC-MS/MS analysis; type: ADME, organism-based; conditions: in vivo
AGS [3] = assay: Antiproliferative activity against human AGS cells harboring […] assessed as inhibition of cell growth incubated for 5 days by crystal violet staining analysis; type: functional, cell-based; conditions: Homo sapiens, AGS, 120 h
GTPase KRas [4] = target: T1, GTPase KRas (Homo sapiens, UniProt P01116); assay: Inhibition of recombinant human GTP-bound KRAS wild type (1 to 169 residues) incubated for 1 hr by HTRF assay
ASPC1 [5] = assay: Antitumor activity against human ASPC1 cells xenografted in mouse assessed as inhibition of tumor growth at 10 mg/kg,ip administrated twice daily for 20 consecutive days relative to control; type: functional; conditions: read-out: TGI
A549 = assay: Antiproliferative activity against human A549 cells harboring […] assessed as inhibition of cell growth incubated for 5 days by crystal violet staining analysis; type: functional, cell-based; conditions: Homo sapiens, A549, 120 h
[6] = Inhibition of recombinant human His6-tagged KRAS4B G12D mutant incubated for 1 hr by HTRF assay
ASPC1 [7] = assay: Antiproliferative activity against human ASPC1 cells harboring […] assessed as inhibition of cell growth incubated for 5 days by crystal violet staining analysis; type: functional, cell-based; conditions: Homo sapiens, ASPC1, 120 h
[8] = Clearance in Sprague-Dawley rat at 1 mg/kg,iv measured upto 24 hrs by LC-MS/MS analysis; type: ADME, organism-based; conditions: in vivo
ASPC1 [9] = assay: Antitumor activity against human ASPC1 cells xenografted in mouse assessed as inhibition of tumor growth at 20 mg/kg,ip administrated twice daily for 20 consecutive days relative to control; type: functional; conditions: read-out: TGI
NCI-H1299 = assay: Antiproliferative activity against human NCI-H1299 cells harboring KRAS wild type assessed as inhibition of cell growth incubated for 5 days by crystal violet staining analysis; type: functional, cell-based; conditions: NCI-H1299, 120 h
GTPase KRas [10] = target: T1, GTPase KRas; assay: Inhibition of KRAS in human AGS cells assessed as downregulation of AKT phosphorylation incubated for 3 hrs by immunoblotting analysis; type: cell-based; conditions: tested as the 2H-labelled form
ASPC1 [11] = assay: Antitumor activity against human ASPC1 cells xenografted in mouse assessed as inhibition of ERK phosphorylation level at 10 mg/kg,ip administrated twice daily for 20 consecutive days by immunoblotting analysis; type: functional, organism-based; conditions: tested as the 2H-labelled form
ASPC1 [12] = assay: Antitumor activity against human ASPC1 cells xenografted in mouse assessed as inhibition of Ki-67 expression level at 10 mg/kg,ip administrated twice daily for 20 consecutive days by immunohistochemistry analysis; type: functional, organism-based; conditions: tested as the 2H-labelled form
ASPC1 [13] = assay: Antitumor activity against human ASPC1 cells xenografted in mouse assessed as inhibition of ERK phosphorylation level at 20 mg/kg,ip administrated twice daily for 20 consecutive days by immunoblotting analysis; type: functional, organism-based; conditions: tested as the 2H-labelled form
GTPase KRas [14] = target: T1, GTPase KRas; assay: Inhibition of KRAS in human ASPC1 cells assessed as downregulation of AKT phosphorylation incubated for 3 hrs by immunoblotting analysis; type: cell-based; conditions: tested as the 2H-labelled form
ASPC1 [15] = assay: Antitumor activity against human ASPC1 cells xenografted in mouse assessed as inhibition of Ki-67 expression level at 20 mg/kg,ip administrated twice daily for 20 consecutive days by immunohistochemistry analysis; type: functional, organism-based; conditions: tested as the 2H-labelled form
ASPC1 [16] = assay: Antitumor activity against human ASPC1 cells xenografted in mouse assessed as inhibition of AKT phosphorylation level at 20 mg/kg,ip administrated twice daily for 20 consecutive days by immunoblotting analysis; type: functional, organism-based; conditions: tested as the 2H-labelled form
GTPase KRas [17] = target: T1, GTPase KRas; assay: Inhibition of KRAS in human ASPC1 cells assessed as downregulation of ERK phosphorylation incubated for 3 hrs by immunoblotting analysis; type: cell-based; conditions: tested as the 2H-labelled form
ASPC1 [18] = assay: Antitumor activity against human ASPC1 cells xenografted in mouse assessed as inhibition of AKT phosphorylation level at 10 mg/kg,ip administrated twice daily for 20 consecutive days by immunoblotting analysis; type: functional, organism-based; conditions: tested as the 2H-labelled form
GTPase KRas [19] = target: T1, GTPase KRas; assay: Inhibition of KRAS in human AGS cells assessed as downregulation of ERK phosphorylation incubated for 3 hrs by immunoblotting analysis; type: cell-based; conditions: tested as the 2H-labelled form
GTPase KRas [20] = target: T1, GTPase KRas; assay: Inhibition of KRAS in human ASPC1 cells assessed as downregulation of ERK phosphorylation at 0.65 nM incubated for 3 hrs by immunoblotting analysis; type: cell-based; conditions: tested as the 2H-labelled form
GTPase KRas [21] = target: T1, GTPase KRas; assay: Inhibition of KRAS in human AGS cells assessed as downregulation of ERK phosphorylation at 0.65 nM incubated for 3 hrs by immunoblotting analysis; type: cell-based; conditions: tested as the 2H-labelled form
GTPase KRas [22] = target: T1, GTPase KRas; assay: Inhibition of KRAS in human AGS cells assessed as downregulation of AKT phosphorylation at 0.65 nM incubated for 3 hrs by immunoblotting analysis; type: cell-based; conditions: tested as the 2H-labelled form
GTPase KRas [23] = target: T1, GTPase KRas; assay: Inhibition of KRAS in human ASPC1 cells assessed as downregulation of ERK phosphorylation at 6.25 to 100 nM incubated for 3 hrs by immunoblotting analysis; type: cell-based; conditions: dose 6.25-100 nM, tested as the 2H-labelled form
GTPase KRas [24] = target: T1, GTPase KRas; assay: Inhibition of KRAS in human ASPC1 cells assessed as downregulation of AKT phosphorylation at 0.65 nM incubated for 3 hrs by immunoblotting analysis; type: cell-based; conditions: tested as the 2H-labelled form
[25] = Metabolic stability in monkey liver microsomes assessed as half life at 150 uM measured after 60 mins in presence of NADPH by LC-MS/MS analysis; type: ADME, Macaca mulatta, Microsome; conditions: rhesus monkey
[26] = Metabolic stability in rat liver microsomes assessed as half life at 150 uM measured after 60 mins in presence of NADPH by LC-MS/MS analysis; type: ADME, Microsome
[27] = Metabolic stability in rat liver microsomes assessed as intrinsic clearance at 150 uM measured after 60 mins in presence of NADPH by LC-MS/MS analysis; type: ADME, Microsome; conditions: read-out: CLH
[28] = Metabolic stability in dog liver microsomes assessed as half life at 150 uM measured after 60 mins in presence of NADPH by LC-MS/MS analysis; type: ADME, Canis lupus familiaris, Microsome
[29] = Metabolic stability in monkey liver microsomes assessed as intrinsic clearance at 150 uM measured after 60 mins in presence of NADPH by LC-MS/MS analysis; type: ADME, Macaca mulatta, Microsome; conditions: rhesus monkey, read-out: CLH
ASPC1 [30] = assay: Induction of apoptosis in human ASPC1 cells harboring […] assessed as early apoptotic cells at 25 uM incubated for 24 hrs by annexin V and propidium iodide staining based flow cytometry analysis (reference value: 5.22%); type: functional
AGS [31] = assay: Induction of apoptosis in human AGS cells harboring […] assessed as late apoptotic cells at 25 uM incubated for 24 hrs by annexin V and propidium iodide staining based flow cytometry analysis (reference value: 7.74%); type: functional
AGS [32] = assay: Induction of apoptosis in human AGS cells harboring […] assessed as early apoptotic cells at 25 uM incubated for 24 hrs by annexin V and propidium iodide staining based flow cytometry analysis (reference value: 4.05%); type: functional
ASPC1 [33] = assay: Induction of apoptosis in human ASPC1 cells harboring […] assessed as late apoptotic cells at 25 uM incubated for 24 hrs by annexin V and propidium iodide staining based flow cytometry analysis (reference value: 6.96%); type: functional
[34] = Toxicity in mouse xenografted with human ASPC1 cells assessed as serum creatinine level at 20 mg/kg,ip administrated twice daily for 20 consecutive days (reference value: 28.2 +/- 2.1 umol/L); type: organism-based; conditions: in vivo
[35] = Toxicity in mouse xenografted with human ASPC1 cells assessed as serum blood urea nitrogen level at 20 mg/kg,ip administrated twice daily for 20 consecutive days (reference value: 16.3 +/- 1.6 mmol/L); type: organism-based; conditions: in vivo
[36] = Metabolic stability in dog liver microsomes assessed as intrinsic clearance at 150 uM measured after 60 mins in presence of NADPH by LC-MS/MS analysis; type: ADME, Canis lupus familiaris, Microsome; conditions: read-out: CLH

Compound | AUC at 24 h [1] | half-life [2] | IC50 (AGS [3]) | IC50 (A549) | IC50 [6] | IC50 (ASPC1 [7]) | clearance [8] | inhibition in vivo at 20 mg/kg (ASPC1 [9]) | IC50 (NCI-H1299) | inhibition (GTPase KRas [10]) | Activity (ASPC1 [11]) | Activity (ASPC1 [12]) | Activity (ASPC1 [13]) | inhibition (GTPase KRas [14]) | Activity (ASPC1 [15]) | Activity (ASPC1 [16]) | inhibition (GTPase KRas [17]) | Activity (ASPC1 [18]) | inhibition (GTPase KRas [19]) | inhibition (GTPase KRas [20]) | further results
[2H]C([2H])(Oc1nc(NCC2(N(C)C)CCC2)c2cnc(-c3cc(O)cc4ccc(F)c(C#C)c34)c(F)c2n1)C12CCCN1CC(=C(F)F)C2 (configuration not stated) | 562 ng·h/mL | 6.91 h | 0.6 nM | 499 nM | 1.21 nM | 1.7 nM | 33.4 mL/min/kg | 68.4% | 1820 nM |  |  |  |  |  |  |  |  |  |  |  | IC50 (GTPase KRas [4]): 18.5 nM; inhibition in vivo at 10 mg/kg (ASPC1 [5]): 54.7%
C#Cc1c(F)ccc2cc(O)cc(-c3ncc4c(NCC5(N(C)C)CCC5)nc(OCC56CCCN5CC(=C(F)F)C6)nc4c3F)c12 (configuration not stated) |  |  |  |  |  |  |  |  |  | Dose-Dependent Effect | Active | Active | Active | Dose-Dependent Effect | Active | Active | Dose-Dependent Effect | Active | Dose-Dependent Effect |  | 
C#Cc1c(F)ccc2cc(N)cc(-c3ncc4c(N5C[C@H]6CC[C@@H](C5)N6)nc(OCC56CCCN5CC(=C(F)F)C6)nc4c3F)c12 (some centres not stated) |  |  |  |  |  |  |  |  |  | Dose-Dependent Effect | Active | Active | Active | Dose-Dependent Effect | Active | Active | Dose-Dependent Effect | Active | Dose-Dependent Effect | Active | inhibition (GTPase KRas [21]): Active; inhibition (GTPase KRas [22]): Active; inhibition (GTPase KRas [23]): > 90%; inhibition (GTPase KRas [24]): Active
C#Cc1c(F)ccc2cc(O)cc(-c3ncc4c(N5C[C@H]6CC[C@@H](C5)N6)nc(OC[C@@]56CCCN5C[C@H](F)C6)nc4c3F)c12 | 188 ng·h/mL | 1.1 h | 1.4 nM | > 5000 nM | 1.24 nM | 7.9 nM | 91.7 mL/min/kg | 73.3% | > 5000 nM |  |  |  |  |  |  |  |  |  |  |  | half-life at 150 µM [25]: 0.568 h; half-life at 150 µM [26]: 2.88 h; microsomal CLint at 150 µM [27]: 8 µL/min/mg; half-life at 150 µM [28]: 1.38 h; microsomal CLint at 150 µM [29]: 40.6 µL/min/mg; Activity (ASPC1 [30]): 8.65%; Activity (AGS [31]): 10.4%; Activity (AGS [32]): 9.27%; Activity (ASPC1 [33]): 12.1%; Activity [34]: 24.7 µmol/L; Activity [35]: 14 mmol/L; microsomal CLint at 150 µM [36]: 16.8 µL/min/mg
C#Cc1c(F)ccc2cc(O)cc(-c3ncc4c(N5C[C@H]6CC[C@@H](C5)N6)nc(OCC56CCCN5CC(=C(F)F)C6)nc4c3F)c12 (some centres not stated) |  |  |  |  |  |  |  |  |  | Dose-Dependent Effect | Active | Active | Active | Dose-Dependent Effect | Active | Active | Dose-Dependent Effect | Active | Dose-Dependent Effect | Active | inhibition (GTPase KRas [21]): Active; inhibition (GTPase KRas [22]): Active; inhibition (GTPase KRas [23]): > 90%; inhibition (GTPase KRas [24]): Active
